Results as given in patent US20240336572A1, “SUBSTITUTED INDAZOLE PROPIONIC ACID DERIVATIVE COMPOUNDS AND USES THEREOF” (Pfizer Inc., priority 2023, published 2024).

What was measured:
AMPK 221 = target: T1, AMPK 221 (Homo sapiens, UniProt O43741+P54646); assay: Biochemical profiling of AMPK activators by AMPK221 (HTRF/TR-FRET assay, SAMS peptide, PP2A dephosphorylation protection); conditions: for EC50: phosphorylated AMPK 221 (α2β2δ1), 11 point dilution, duplicate, 4-parameter fit; for Emax: phosphorylated AMPK 221, maximal activation
T1 construct: open reading frames encoding the full-length α2, β2 and δ1 subunits of human AMPK; made in house; host or cells: E. coli BL21-CodonPlus (DE3)-RIPL, pET-14b

[1] = Metabolite profile in liver microsomes, hepatocytes, recombinant human P450 and UGT enzymes, and animal plasma; assay type: in vitro ADME; conditions: liver microsomes and hepatocytes (mouse, rat, rabbit, dog, monkey, human)
Description: The metabolite profile of Example 1 is evaluated in liver microsomes and hepatocytes (mouse, rat, rabbit, dog, monkey, and human), recombinant human cytochrome P450 enzymes, recombinant human UGT enzymes, and plasma from animals (mouse, rat, and dog).

AMPK 111 = target: T2, AMPK 111 (Homo sapiens, UniProt Q13131+Q9Y478); assay: Biochemical profiling of AMPK activators by AMPK111 (HTRF/TR-FRET assay, SAMS peptide, PP2A dephosphorylation protection); conditions: for EC50: phosphorylated AMPK 111 (α1β1δ1 as printed), 11 point dilution, duplicate, 4-parameter fit; for Emax: phosphorylated AMPK 111, maximal activation
T2 construct: open reading frames encoding the full-length α1, β1 and δ1 subunits of human AMPK; made in house; host or cells: E. coli BL21-CodonPlus (DE3)-RIPL, pET-14b
T2 sequence (Q13131 whole entry): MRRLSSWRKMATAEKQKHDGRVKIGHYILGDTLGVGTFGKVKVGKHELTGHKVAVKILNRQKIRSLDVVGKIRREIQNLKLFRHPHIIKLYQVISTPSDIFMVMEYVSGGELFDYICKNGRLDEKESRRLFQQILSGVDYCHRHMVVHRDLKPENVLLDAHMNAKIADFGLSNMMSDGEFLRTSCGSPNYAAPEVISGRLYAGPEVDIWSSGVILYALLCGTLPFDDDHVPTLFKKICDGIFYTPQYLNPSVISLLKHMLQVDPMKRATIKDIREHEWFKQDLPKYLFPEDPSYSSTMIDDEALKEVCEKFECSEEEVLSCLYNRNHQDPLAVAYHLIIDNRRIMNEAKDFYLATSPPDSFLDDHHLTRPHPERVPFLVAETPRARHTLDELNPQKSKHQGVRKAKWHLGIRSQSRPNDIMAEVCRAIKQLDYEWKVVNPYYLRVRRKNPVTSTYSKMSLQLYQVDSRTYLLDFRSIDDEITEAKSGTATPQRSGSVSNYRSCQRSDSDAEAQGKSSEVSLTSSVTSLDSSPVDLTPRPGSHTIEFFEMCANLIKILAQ
T2 sequence (Q9Y478 whole entry): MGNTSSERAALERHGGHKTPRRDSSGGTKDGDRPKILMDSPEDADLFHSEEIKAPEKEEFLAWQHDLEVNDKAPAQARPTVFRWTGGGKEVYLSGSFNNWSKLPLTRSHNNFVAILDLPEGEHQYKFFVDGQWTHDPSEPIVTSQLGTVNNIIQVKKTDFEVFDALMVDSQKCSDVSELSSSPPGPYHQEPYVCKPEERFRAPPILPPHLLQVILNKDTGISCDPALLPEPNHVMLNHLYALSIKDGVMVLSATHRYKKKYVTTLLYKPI
T2 sequence (P54619 whole entry partner): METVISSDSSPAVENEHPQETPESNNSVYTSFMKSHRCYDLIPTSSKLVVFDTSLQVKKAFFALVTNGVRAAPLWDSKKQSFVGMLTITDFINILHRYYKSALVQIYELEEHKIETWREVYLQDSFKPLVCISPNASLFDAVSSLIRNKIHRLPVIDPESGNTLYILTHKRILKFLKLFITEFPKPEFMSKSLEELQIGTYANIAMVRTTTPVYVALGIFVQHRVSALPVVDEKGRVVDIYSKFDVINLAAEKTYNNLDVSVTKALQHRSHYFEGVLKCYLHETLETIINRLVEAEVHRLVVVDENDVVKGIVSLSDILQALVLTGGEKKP

T1 sequence (P54646 whole entry): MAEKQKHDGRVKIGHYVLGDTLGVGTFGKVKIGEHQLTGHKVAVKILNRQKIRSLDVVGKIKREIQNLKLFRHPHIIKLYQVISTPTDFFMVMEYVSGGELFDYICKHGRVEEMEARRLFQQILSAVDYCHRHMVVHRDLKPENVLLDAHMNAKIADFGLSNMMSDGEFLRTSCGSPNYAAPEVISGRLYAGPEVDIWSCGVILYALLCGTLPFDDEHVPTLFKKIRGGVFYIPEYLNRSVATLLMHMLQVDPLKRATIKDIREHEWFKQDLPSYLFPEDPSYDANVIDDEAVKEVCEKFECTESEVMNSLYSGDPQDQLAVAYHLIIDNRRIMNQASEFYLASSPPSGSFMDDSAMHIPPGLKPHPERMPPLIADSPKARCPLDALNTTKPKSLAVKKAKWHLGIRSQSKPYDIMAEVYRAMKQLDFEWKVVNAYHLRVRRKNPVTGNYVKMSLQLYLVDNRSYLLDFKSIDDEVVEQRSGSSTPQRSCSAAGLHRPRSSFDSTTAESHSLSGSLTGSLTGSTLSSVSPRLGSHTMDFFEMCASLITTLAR
T1 sequence (O43741 whole entry): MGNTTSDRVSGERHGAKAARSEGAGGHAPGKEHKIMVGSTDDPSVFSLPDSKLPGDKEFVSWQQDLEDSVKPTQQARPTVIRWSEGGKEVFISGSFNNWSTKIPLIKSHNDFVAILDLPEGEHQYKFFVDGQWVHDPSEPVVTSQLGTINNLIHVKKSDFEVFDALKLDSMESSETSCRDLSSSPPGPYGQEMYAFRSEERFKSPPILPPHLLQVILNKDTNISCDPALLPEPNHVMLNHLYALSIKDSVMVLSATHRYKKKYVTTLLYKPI
T1 sequence (P54619 whole entry partner): as the sequence (P54619 whole entry partner) above

| EC50 (AMPK 221) | Emax (AMPK 221) | metabolite profile [1] | EC50 (AMPK 111) | Emax (AMPK 111) | SMILES |
| --- | --- | --- | --- | --- | --- |
| 88 nM | 57% | oxidation and glucuronidation | 47 nM | 75% | O=C(O)CCc1n[nH]c2cc(Cl)c(-c3ccc(-c4ccccc4O)cc3)cc12 [Example 1, 3-(6-Chloro-5-(2′-hydroxy-[1,1′-biphenyl]-4-yl)-1H-indazol-3-yl)propanoic acid] |
| 114 nM | 66% |  | 107 nM | 77% | COc1ccc(F)c(-c2ccc(-c3cc4c(CCC(=O)O)n[nH]c4cc3Cl)cc2)c1O [Example 26, 3-(6-chloro-5-(6′-fluoro-2′-hydroxy-3′-methoxy-[1,1′-biphenyl]-4-yl)-1H-indazol-3-yl)propanoic acid] |
| 5 nM | 56% |  | 2 nM | 71% | CNC(=O)c1ccc(-c2ccc(-c3cc4c(CCC(=O)O)n[nH]c4cc3Cl)cc2)c(O)c1 [Example 23, 3-(6-chloro-5-(2′-hydroxy-4′-(methylcarbamoyl)-[1,1′-biphenyl]-4-yl)-1H-indazol-3-yl)propanoic acid] |
